Assay results taken from ChEMBL document CHEMBL1144322, “Structure-based design of potent and selective inhibitors of collagenase-3 (MMP-13)” (Bioorg Med Chem Lett, 2005).

What was measured:
Collagenase 3 [1] = molecular target: T1, Collagenase 3 (Homo sapiens, UniProt P45452); experiment: Inhibition of matrix metalloprotease-13
[2] = molecular target: Disintegrin and metalloproteinase domain-containing protein 17 (Homo sapiens, UniProt P78536); experiment: Inhibition of TNF-alpha converting enzyme (TACE, ADAM17)
Disintegrin and metalloproteinase domain-containing protein 17, sequence (P78536 whole entry, the tested form may be a part): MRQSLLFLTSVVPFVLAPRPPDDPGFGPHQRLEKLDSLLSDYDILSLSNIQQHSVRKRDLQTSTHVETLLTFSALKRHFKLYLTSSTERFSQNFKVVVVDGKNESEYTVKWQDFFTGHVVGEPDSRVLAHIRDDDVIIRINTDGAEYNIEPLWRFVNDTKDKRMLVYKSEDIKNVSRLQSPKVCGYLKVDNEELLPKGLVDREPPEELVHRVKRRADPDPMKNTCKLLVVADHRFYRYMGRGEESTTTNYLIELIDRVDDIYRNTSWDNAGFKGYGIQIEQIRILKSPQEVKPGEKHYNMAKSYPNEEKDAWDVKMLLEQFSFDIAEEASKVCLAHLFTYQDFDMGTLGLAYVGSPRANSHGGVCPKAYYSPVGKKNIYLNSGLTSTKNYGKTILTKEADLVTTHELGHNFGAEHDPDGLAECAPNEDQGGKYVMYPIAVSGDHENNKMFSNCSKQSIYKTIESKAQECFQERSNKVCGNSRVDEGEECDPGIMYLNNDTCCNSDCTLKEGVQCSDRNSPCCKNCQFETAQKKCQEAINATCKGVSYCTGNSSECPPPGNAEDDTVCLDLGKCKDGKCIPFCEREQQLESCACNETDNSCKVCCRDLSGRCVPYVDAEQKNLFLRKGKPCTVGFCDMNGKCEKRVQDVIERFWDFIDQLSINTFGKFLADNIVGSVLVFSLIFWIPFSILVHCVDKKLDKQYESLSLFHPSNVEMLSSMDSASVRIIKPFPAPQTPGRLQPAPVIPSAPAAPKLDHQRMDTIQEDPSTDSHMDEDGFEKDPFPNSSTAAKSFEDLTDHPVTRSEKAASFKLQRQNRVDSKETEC

[3] = molecular target: Matrix metalloproteinase-9 (Homo sapiens, UniProt P14780); experiment: Inhibition of matrix metalloprotease-9
Matrix metalloproteinase-9, sequence (P14780 whole entry): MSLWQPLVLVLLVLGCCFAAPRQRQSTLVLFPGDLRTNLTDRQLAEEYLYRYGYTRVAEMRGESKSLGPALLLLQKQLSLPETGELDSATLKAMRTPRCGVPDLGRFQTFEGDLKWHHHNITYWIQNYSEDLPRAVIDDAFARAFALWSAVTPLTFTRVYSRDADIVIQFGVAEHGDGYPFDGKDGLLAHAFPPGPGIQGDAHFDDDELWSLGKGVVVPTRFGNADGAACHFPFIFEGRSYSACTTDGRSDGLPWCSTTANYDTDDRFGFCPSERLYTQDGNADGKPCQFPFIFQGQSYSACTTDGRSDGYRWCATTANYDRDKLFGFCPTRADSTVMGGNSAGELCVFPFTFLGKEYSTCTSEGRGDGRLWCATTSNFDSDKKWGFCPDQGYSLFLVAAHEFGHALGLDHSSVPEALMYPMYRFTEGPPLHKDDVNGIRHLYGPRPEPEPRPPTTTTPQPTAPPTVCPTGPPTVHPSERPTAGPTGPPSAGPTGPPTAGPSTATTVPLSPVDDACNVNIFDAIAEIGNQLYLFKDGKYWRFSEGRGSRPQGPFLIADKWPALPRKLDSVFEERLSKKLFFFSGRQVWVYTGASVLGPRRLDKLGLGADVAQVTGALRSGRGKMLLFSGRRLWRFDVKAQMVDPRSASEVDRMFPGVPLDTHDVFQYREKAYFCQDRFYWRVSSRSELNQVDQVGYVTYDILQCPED

Interstitial collagenase = molecular target: T2, Interstitial collagenase (Homo sapiens, UniProt P03956); experiment: Inhibition of matrix metalloprotease-1
T2 sequence (P03956 whole entry): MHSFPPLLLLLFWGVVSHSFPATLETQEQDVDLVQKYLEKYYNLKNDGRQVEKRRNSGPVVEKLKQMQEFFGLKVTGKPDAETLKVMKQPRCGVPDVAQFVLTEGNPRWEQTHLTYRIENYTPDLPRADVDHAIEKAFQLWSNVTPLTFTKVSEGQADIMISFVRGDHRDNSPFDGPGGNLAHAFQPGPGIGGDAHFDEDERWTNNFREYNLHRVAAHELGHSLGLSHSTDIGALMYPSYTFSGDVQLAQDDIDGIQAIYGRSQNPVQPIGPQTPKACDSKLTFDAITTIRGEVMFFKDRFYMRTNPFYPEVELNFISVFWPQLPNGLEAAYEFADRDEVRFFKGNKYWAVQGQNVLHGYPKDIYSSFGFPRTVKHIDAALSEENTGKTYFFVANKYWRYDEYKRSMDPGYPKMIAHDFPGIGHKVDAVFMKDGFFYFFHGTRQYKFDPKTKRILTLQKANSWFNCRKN

Stromelysin-1 = Stromelysin-1 (Homo sapiens, UniProt P08254); experiment: Inhibition of matrix metalloprotease-3
Stromelysin-1, sequence (P08254 whole entry): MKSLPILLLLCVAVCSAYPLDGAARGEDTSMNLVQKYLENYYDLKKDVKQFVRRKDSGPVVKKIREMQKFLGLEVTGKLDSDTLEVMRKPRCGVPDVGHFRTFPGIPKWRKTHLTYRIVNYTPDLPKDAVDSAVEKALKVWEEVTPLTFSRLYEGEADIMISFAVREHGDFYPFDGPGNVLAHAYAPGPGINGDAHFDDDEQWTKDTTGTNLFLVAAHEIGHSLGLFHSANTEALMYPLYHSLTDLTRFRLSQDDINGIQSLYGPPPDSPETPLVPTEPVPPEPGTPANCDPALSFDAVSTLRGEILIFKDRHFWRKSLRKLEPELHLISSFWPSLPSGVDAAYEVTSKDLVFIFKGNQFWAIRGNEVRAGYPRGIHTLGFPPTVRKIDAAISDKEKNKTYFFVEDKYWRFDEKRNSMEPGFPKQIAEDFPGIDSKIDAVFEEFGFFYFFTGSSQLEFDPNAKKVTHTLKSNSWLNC

[4] = molecular target: 72 kDa type IV collagenase (Homo sapiens, UniProt P08253); experiment: Inhibition of matrix metalloprotease-2
72 kDa type IV collagenase, sequence (P08253 whole entry): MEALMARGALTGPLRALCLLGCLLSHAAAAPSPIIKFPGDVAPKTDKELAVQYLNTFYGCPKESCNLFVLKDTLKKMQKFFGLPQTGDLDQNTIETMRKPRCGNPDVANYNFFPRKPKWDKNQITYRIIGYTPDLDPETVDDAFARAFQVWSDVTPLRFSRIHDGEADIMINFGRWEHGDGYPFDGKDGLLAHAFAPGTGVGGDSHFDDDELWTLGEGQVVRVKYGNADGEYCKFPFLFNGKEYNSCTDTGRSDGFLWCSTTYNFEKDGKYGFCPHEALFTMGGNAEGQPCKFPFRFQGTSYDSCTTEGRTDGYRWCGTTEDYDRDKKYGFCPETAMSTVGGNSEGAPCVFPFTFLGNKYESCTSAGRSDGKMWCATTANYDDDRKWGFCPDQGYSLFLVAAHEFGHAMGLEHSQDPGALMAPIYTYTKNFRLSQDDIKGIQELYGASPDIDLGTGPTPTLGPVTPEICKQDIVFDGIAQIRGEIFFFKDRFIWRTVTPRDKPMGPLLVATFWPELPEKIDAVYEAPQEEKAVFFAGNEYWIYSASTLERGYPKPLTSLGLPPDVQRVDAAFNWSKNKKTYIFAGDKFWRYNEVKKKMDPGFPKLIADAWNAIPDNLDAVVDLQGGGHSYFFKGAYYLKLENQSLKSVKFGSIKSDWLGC

Collagenase 3 [5] = molecular target: T1, Collagenase 3; experiment: Binding affinity for matrix metalloprotease 13

Compound	Ki (Collagenase 3 [1]) [nM]	Ki [2] [nM]	Ki [3] [nM]	Ki (Interstitial collagenase) [nM]	Ki (Stromelysin-1) [nM]	Ki [4] [nM]	Ki (Collagenase 3 [5]) [nM]
O=C1NC(=O)C2(CCC(=O)N2c2ccccc2)C(=O)N1	2200						
COc1ccncc1Oc1ccc(N2C(=O)CCC23C(=O)NC(=O)NC3=O)cc1	25						
O=C1NC(=O)C2(CCC(=O)N2c2ccc(Oc3ccc(C(=O)O)cc3)cc2)C(=O)N1	2.7	> 1000	0.72	> 5000	3200	0.23	
O=C1NC(=O)C2(CCC(=O)N2c2ccc(Oc3ccc(Cl)cc3)cc2)C(=O)N1	0.95	> 1000	0.72	> 5000	430	0.43	
O=C1NC(=O)C2(CCC(=O)N2c2ccc(Oc3ccc4c(c3)OCO4)cc2)C(=O)N1	5.8						
COC(=O)c1ccc(Oc2ccc(N3C(=O)CCC34C(=O)NC(=O)NC4=O)cc2)cc1	4.2	> 1000	1.2	> 5000	1300	4.7	
CCC1CC(=O)N(c2ccc(Oc3ccccc3)cc2)C12C(=O)NC(=O)NC2=O (single isomer, unassigned)		> 1000	7.2	> 5000	1200	1.7	4.1
O=C1NC(=O)C2(CCC(=O)N2c2ccc(OCc3ccccc3)cc2)C(=O)N1	1100						
COc1ccccc1Oc1ccc(N2C(=O)CCC23C(=O)NC(=O)NC3=O)cc1	110						
O=C1NC(=O)C2(CCC(=O)N2c2ccc(Oc3ccccc3)cc2)C(=O)N1	4.7	> 1000	4.7	> 5000	4500	1.6	
CCC1CC(=O)N(c2ccc(Oc3ccccc3)cc2)C12C(=O)NC(=O)NC2=O (stereo in doubt)		> 1000	0.87	> 5000	92	0.4	0.54
O=C1NC(=O)C2(CCC(=O)N2c2ccc(Oc3cccc(Cl)c3)cc2)C(=O)N1	54						
O=C1NC(=O)C2(CCC(=O)N2c2ccc(Br)cc2)C(=O)N1	130						
O=C1NC(=O)C2(CCC(=O)N2c2ccc(Oc3ccc(Oc4ccccc4)cc3)cc2)C(=O)N1	0.33	> 1000	1.9	> 5000	110	1.8	
COc1cccc(Oc2ccc(N3C(=O)CCC34C(=O)NC(=O)NC4=O)cc2)c1	1.9						
O=C1NC(=O)C2(CCC(=O)N2c2ccc(-c3ccccc3)cc2)C(=O)N1	934						
